Data from US11976083B2, “Inhibitors of peptidylarginine deiminases” (Gilead Sciences, Inc., priority 2020, dated 2024).

Molecular target: T1, human PAD4 (Homo sapiens, UniProt Q9UM07)
T1 construct: human PAD4 (NM_012387), A2-P663, was PCR amplified; His-SUMO (N, cleaved yes); made in house; host or cells: E. coli BL21(DE3)
Test: In vitro PAD4 BAEE biochemical assay
Conditions: BAEE substrate 3 mM, 5 nM PAD4, 2 mM calcium chloride; geometric mean of multiple experiments
Method in brief: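 PAD4 5 nM, CaCl2 2 mM, BAEE 3 mM final; 50 mM MOPS pH 7.6, 50 mM NaCl, 0.05% Tween-20, 2 mM DTT. Cpd + enzyme 30 min 25 °C; substrate 2 h 25 °C; EDTA stop; OPA detection 1 h. IC50 4-parameter fit.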

T1 sequence (Q9UM07 2-663): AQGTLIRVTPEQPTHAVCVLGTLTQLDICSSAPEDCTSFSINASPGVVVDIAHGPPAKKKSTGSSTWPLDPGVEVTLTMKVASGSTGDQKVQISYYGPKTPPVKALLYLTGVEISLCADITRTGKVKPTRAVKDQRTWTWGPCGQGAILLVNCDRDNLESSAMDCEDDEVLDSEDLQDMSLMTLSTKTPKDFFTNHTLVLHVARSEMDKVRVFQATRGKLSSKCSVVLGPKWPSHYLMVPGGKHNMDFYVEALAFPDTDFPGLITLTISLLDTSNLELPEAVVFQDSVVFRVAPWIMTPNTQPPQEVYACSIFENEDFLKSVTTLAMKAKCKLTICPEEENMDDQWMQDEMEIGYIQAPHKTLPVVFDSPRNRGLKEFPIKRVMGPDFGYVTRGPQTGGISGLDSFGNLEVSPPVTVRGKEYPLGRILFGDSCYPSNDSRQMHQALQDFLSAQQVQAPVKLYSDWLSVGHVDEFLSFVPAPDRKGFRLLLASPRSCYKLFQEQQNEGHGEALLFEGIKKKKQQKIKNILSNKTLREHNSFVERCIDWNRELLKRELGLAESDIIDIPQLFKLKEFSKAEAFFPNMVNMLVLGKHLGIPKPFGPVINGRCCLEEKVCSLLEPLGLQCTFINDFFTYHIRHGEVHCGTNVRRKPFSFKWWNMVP

Q: With `COc1cc(C(=O)N2C[C@H]3CC[C@@H]2[C@@H]3N)cc2nc(-c3cc4ccc5nc4n3CCCCCCC(C)(C)C(=O)N[C@@H]5C)n(C)c12` [Example 13, (11~{R})-17-[5-[(1~{R},4~{R},7~{R})-7-amino-2-azabicyclo[2.2.1]heptane-2-carbonyl]-7-methoxy-1-methyl-benzimidazol-2-yl]-8,8,11-trimethyl-1,10,19-triazatricyclo[10.5.2.0^{15,18}]nonadeca-12(19),13,15(18),16-tetraen-9-one] as the compound, how does the IC50 read?
A: 0.121 µM

Q: With `COc1cc(C(=O)N2CC[C@@H](OCC(F)F)[C@@H](N)C2)cc2nc(-c3cc4ccc5nc4n3CCCCCCC(C)(C)C(=O)N[C@@H]5C)n(C)c12` [Example 14, (11~{R})-17-[5-[(3~{S),4~{R})-3-amino-4-(2,2-difluoroethoxy)piperidine-1-carbonyl]-7-methoxy-1-methyl-benzimidazol-2-yl]-8,8,11-trimethyl-1,10,19-triazatricyclo[10.5.2.0^{15,18}]nonadeca-12(19),13,15(18),16-tetraen-9-one] as the compound, how does the IC50 read?
A: 0.121 µM

Q: Which IC50 does the source give for `COc1cc(C(=O)N2CCC[C@@H](N)[C@H]2C)cc2nc(-c3cc4ccc5nc4n3CCCCCCC(C)(C)C(=O)N[C@@H]5C)n(C)c12` [Example 15, (11~{R})-17-[5-[(2~{R},3~{R})-3-amino-2-methyl-piperidine-1-carbonyl]-7-methoxy-1-methyl-benzimidazol-2-yl]-8,8,11-trimethyl-1,10,19-triazatricyclo[10.5.2.0^{15,18}]nonadeca-12(19),13,15(18),16-tetraen-9-one] here?
A: 0.06 µM

Q: `COc1cc(C(=O)N2CCC[C@@H](N)C2)cc2nc(-c3cc4ccc5nc4n3CCCCCCC(C)(C)C(=O)N[C@@H]5C)n(C)c12` [Example 16, (11~{R})-17-[5-[(3~{R})-3-aminopiperidine-1-carbonyl]-7-methoxy-1-methyl-benzimidazol-2-yl]-8,8,11-trimethyl-1,10,19-triazatricyclo[10.5.2.0^{15,18}]nonadeca-12(19),13,15(18),16-tetraen-9-one] was tested. Which IC50 did it give?
A: 0.067 µM

Q: How did the IC50 turn out when `COc1cc(C(=O)N2CCC[C@@H](N)C2)cc2nc(-c3cc4ccc5nc4n3CCCCCOCC(C)(C)C(=O)N[C@@H]5C)n(C)c12` [Example 17, (12~{R})-18-[5-[(3~{R})-3-aminopiperidine-1-carbonyl]-7-methoxy-1-methyl-benzimidazol-2-yl]-9,9,12-trimethyl-7-oxa-1,11,20-triazatricyclo[11.5.2.0^{16,19}]icosa-13(20),14,16(19),17-tetraen-10-one] was run?
A: 0.074 µM

Q: `COc1cc(C(=O)N2CCC[C@@H](N)C2)cc2nc(-c3cc4ccc5nc4n3CCCCCOC(C)(C)C(=O)N[C@@H]5C)n(C)c12` [Example 18, (11~{R})-17-[5-[(3~{R})-3-aminopiperidine-1-carbonyl]-7-methoxy-1-methyl-benzimidazol-2-yl]-8,8,11-trimethyl-7-oxa-1,10,19-triazatricyclo[10.5.2.0^{15,18}]nonadeca-12(19),13,15(18),16-tetraen-9-one] was tested. Which IC50 did it give?
A: 0.085 µM

Q: `COc1cc(C(=O)N[C@H]2CNCC[C@@H]2F)cc2nc(-c3cc4ccc5nc4n3CCCCCOC(C)(C)C(=O)N[C@@H]5C)n(C)c12` [Example 19, ~{N}-[(3~{S},4~{S})-4-fluoro-3-piperidyl]-7-methoxy-1-methyl-2-[(11~{R})-8,8,11-trimethyl-9-oxo-7-oxa-1,10,19-triazatricyclo[10.5.2.0^{15,18}]nonadeca-12(19),13,15(18),16-tetraen-17-yl]benzimidazole-5-carboxamide] was tested. Which IC50 did it give?
A: 0.076 µM

Q: With `COc1cc(C(=O)N2[C@H]3CC[C@@H]2[C@H](N)C3)cc2nc(-c3cc4ccc5nc4n3CCCCCCC(C)(C)C(=O)N[C@@H]5C)n(C)c12` [Example 20, (11~{R})-17-[5-[(1~{R},2~{R},4~{S})-2-amino-7-azabicyclo[2.2.1]heptane-7-carbonyl]-7-methoxy-1-methyl-benzimidazol-2-yl]-8,8,11-trimethyl-1,10,19-triazatricyclo[10.5.2.0^{15,18}]nonadeca-12(19),13,15(18),16-tetraen-9-one] as the compound, how does the IC50 read?
A: 0.062 µM

Q: With `COc1cc(C(=O)N2[C@H]3CC[C@@H]2[C@H](N)C3)cc2nc(-c3cc4ccc5nc4n3CCCCCOC(C)(C)C(=O)N[C@@H]5C)n(C)c12` [Example 21, (11~{R})-17-[5-[(1~{R},2~{R},4~{S})-2-amino-7-azabicyclo[2.2.1]heptane-7-carbonyl]-7-methoxy-1-methyl-benzimidazol-2-yl]-8,8,11-trimethyl-7-oxa-1,10,19-triazatricyclo[10.5.2.0^{15,18}]nonadeca-12(19),13,15(18),16-tetraen-9-one] as the compound, how does the IC50 read?
A: 0.063 µM

Q: With `COc1cc(C(=O)N2[C@H]3CC[C@@H]2[C@H](N)C3)cc2nc(-c3cc4ccc5nc4n3CCCCCOCC(C)(C)C(=O)N[C@@H]5C)n(C)c12` [Example 22, (12~{R})-18-[5-[(1~{R},2~{R},4~{S})-2-amino-7-azabicyclo[2.2.1]heptane-7-carbonyl]-7-methoxy-1-methyl-benzimidazol-2-yl]-9,9,12-trimethyl-7-oxa-1,11,20-triazatricyclo[11.5.2.0^{16,19}]icosa-13(20),14,16(19),17-tetraen-10-one] as the compound, how does the IC50 read?
A: 0.062 µM

Q: For `COc1cc(C(=O)N2[C@H]3CC[C@@H]2[C@H](N)C3)cc2nc(-c3cc4ccc5nc4n3C/C=C\CCCCS(=O)(=O)N[C@@H]5C)n(C)c12` [Example 23, [(1˜{R},2˜{R},4˜{S})-2-amino-7-azabicyclo[2.2.1]heptan-7-yl]-[7-methoxy-1-methyl-2-[(11˜{R})-11-methyl-9,9-dioxo-9$1^6-thia-1,10,19-triazatricyclo[10.5.2.0^{15,18}]nonadeca-3,12(19),13,15(18),16-pentaen-17-yl]benzimidazol-5-yl]methanone], which IC50 is on record?
A: 0.04 µM

Q: How did the IC50 turn out when `COc1cc(C(=O)N2[C@H]3CC[C@@H]2[C@H](N)C3)cc2nc(-c3cc4ccc5nc4n3CCC/C=C/c3ccccc3C(=O)N[C@@H]5C)n(C)c12` [Example 24, (2~{R},11~{E})-17-[5-[(1~{R},2~{R},4~{S})-2-amino-7-azabicyclo[2.2.1]heptane-7-carbonyl]-7-methoxy-1-methyl-benzimidazol-2-yl]-2-methyl-3,16,22-triazatetracyclo[14.5.2.0^{5,10}.0^{19,23}] tricosa-1(22),5,7,9,11,17,19(23),20-octaen-4-one] was run?
A: 0.056 µM

Q: Which IC50 does the source give for `COc1cc(C(=O)N2CCC[C@@H](N)C2)cc2nc(-c3cc4ccc5nc4n3CCCCCCc3cn(nn3)C5C)n(C)c12` (stereo partly shown) [Example 25, [(3˜{R})-3-amino-1-piperidyl]-[7-methoxy-1-methyl-2-(2-methyl-3,4,5,13,19-pentazatetracyclo[11.5.2.1^{3,6}.0^{16,20}]henicosa-1(19),4,6(21),14,16(20),17-hexaen-14-yl)benzimidazol-5-yl]methanone] here?
A: 0.775 µM

Q: How did the IC50 turn out when `COc1cc(C(=O)N2CCC[C@@H](N)C2)cn2nc(-c3cc4ccc5nc4n3CCCCCCCC(=O)N[C@@H]5C)c(C)c12` [Example 26, (11~{R})-17-[6-[(3~{R})-3-aminopiperidine-1-carbonyl]-4-methoxy-3-methyl-pyrazolo[1,5-a]pyridin-2-yl]-11-methyl-1,10,19-triazatricyclo[10.5.2.0^{15,18}]nonadeca-12(19),13,15(18),16-tetraen-9-one] was run?
A: 0.086 µM

Q: With `COc1cc(C(=O)N2CCC[C@@H](N)C2)cn2nc(-c3cc4ccc5nc4n3CCCCCCC(C)(C)C(=O)N[C@@H]5C)c(C)c12` [Example 27, (11~{R})-17-[6-[(3~{R})-3-aminopiperidine-1-carbonyl]-4-methoxy-3-methyl-pyrazolo[1,5-a]pyridin-2-yl]-8,8,11-trimethyl-1,10,19-triazatricyclo[10.5.2.0^{15,18}]nonadeca-12(19),13,15(18),16-tetraen-9-one] as the compound, how does the IC50 read?
A: 0.201 µM

Q: How did the IC50 turn out when `COc1cc(C(=O)N2CCC[C@@H](N)C2)cc2nc(-c3cc4ccc5nc4n3CCCCCc3ccccc3C(=O)N[C@@H]5C)n(C)c12` [Example 28, (2~{R})-17-[5-[(3~{R})-3-aminopiperidine-1-carbonyl]-7-methoxy-1-methyl-benzimidazol-2-yl]-2-methyl-3,16,22-triazatetracyclo[14.5.2.0^{5,10}.0^{19,23}] tricosa-1(22),5,7,9,17,19(23),20-heptaen-4-one] was run?
A: 0.046 µM

Q: With `COc1cc(C(=O)N2CCC[C@@H](N)C2)cc2nc(-c3cc4ccc5nc4n3CCCCCCc3ccccc3C(=O)N[C@@H]5C)n(C)c12` [Example 29, (2~{R})-18-[5-[(3~{R})-3-aminopiperidine-1-carbonyl]-7-methoxy-1-methyl-benzimidazol-2-yl]-2-methyl-3,17,23-triazatetracyclo[15.5.2.0^{5,10}.0^{20,24}] tetracosa-1(23),5,7,9,18,20(24),21-heptaen-4-one] as the compound, how does the IC50 read?
A: 0.07 µM

Q: How did the IC50 turn out when `COc1cc(C(=O)N2CCC[C@@H](N)C2)cc2nc(-c3cc4ccc5nc4n3CCCCOc3ccccc3C(=O)N[C@@H]5C)n(C)c12` [Example 30, (2~{R})-17-[5-[(3~{R})-3-aminopiperidine-1-carbonyl]-7-methoxy-1-methyl-benzimidazol-2-yl]-2-methyl-11-oxa-3,16,22-triazatetracyclo[14.5.2.0^{5,10).0^{19,23}] tricosa-1(22),5,7,9,17,19(23),20-heptaen-4-one] was run?
A: 1.78 µM

Q: For `COc1cc(C(=O)N[C@H]2CNCC[C@@H]2F)cc2nc(-c3cc4ccc5nc4n3CCCCCc3ccccc3C(=O)N[C@@H]5C)n(C)c12` [Example 31, ~{N}-[(3~{S},4~{S})-4-fluoro-3-piperidyl]-7-methoxy-1-methyl-2-[(2~{R})-2-methyl-4-oxo-3,16,22-triazatetracyclo[14.5.2.0^{5,10}.0^{19,23}]tricosa-1(22),5,7,9,17,19(23),20-heptaen-17-yl]benzimidazole-5-carboxamide], which IC50 is on record?
A: 0.081 µM
